In PMC12693764, “Antidepressant-like Effects of Garcinia nigrolineata Resin Extract in a Chronic Mild Stress Mouse Model: Modulation of Monoaminergic and HPA-Axis Pathways” (Plants, 2025):
Counter-ions that a name gives are not always drawn.

Columns and labels:
norepinephrine (NE) = assay: Norepinephrine (NE) levels in frontal cortex and hippocampus of CMS mice; type: in vivo, male ICR mice; settings: daily imipramine 20 mg/kg or GNR-E 450 mg/kg, vs vehicle-treated CMS group
Procedure: (§1) The CMS procedure, adapted from Willner, was applied to experimental mice over 48 days. Seventy-two mice were randomly assigned to six groups: a non-stress control group and four CMS-exposed groups for 6 weeks. Stressors included a tilted cage at 45° (12 h), restricted food access (five micro pellets, 1 h), empty bottle exposure (3 h), wet cage (200 mL water in 100 g sawdust bedding, 21 h), reversed light–dark cycle (36 h), intermittent sound (3 and 5 h), paired caging (2 h), and food/water deprivation (18 h), applied randomly weekly and repeated over 6 weeks (Figure 11). The non-stressed group was maintained under standard conditions.
(§2) Mice were randomly divided into six groups (n = 15). The non-stress group received 0.5% sodium carboxymethylcellulose (SCMC; 1 mL/kg, p.o.), while the CMS group received 0.5% SCMC (1 mL/kg, p.o.). […]
Brain supernatant (0.2 mL) was combined with 0.1 mL sodium acetate buffer (pH 6.9), 0.05 mL HCl (0.4 M), and 0.1 mL iodine solution (0.1 M in ethanol) for oxidation. […] Excitation and emission spectra were recorded at 395 nm and 485 nm, respectively, using a calibrated spectrofluorometer. Norepinephrine concentrations were calculated from a standard curve (0, 50, 100, 140, 220, 280, 300 µg/mL) prepared in distilled water and butanol/HCl (1:2 ratio).

NET, α2A, and α2C = assay: qPCR of noradrenergic biomarker genes in frontal cortex and hippocampus of CMS mice; type: in vivo, male ICR mice
Procedure: as §1
Mice were randomly divided into six groups (n = 15). The non-stress group received 0.5% sodium carboxymethylcellulose (SCMC; 1 mL/kg, p.o.), while the CMS group received 0.5% SCMC (1 mL/kg, p.o.). The CMS + imipramine (IMP) group was administered imipramine hydrochloride (20 mg/kg, p.o.), and the CMS + GNR-E groups received GNR-E at 50, 150, and 450 mg/kg (p.o.), respectively. All treatments were given daily for 3 weeks, starting on day 21, at 8:00 a.m., one hour before behavioral testing.
Following behavioral tests, mice were anesthetized with […] (Nembutal®, Ceva Sante Animal, Libourne, France) at 60 mg/kg (i.p.) and decapitated. Blood and brain samples were collected immediately. Blood was centrifuged at 3000 rpm at 21 °C for 20 min to obtain serum for ELISA analysis. […]
(§3) Total RNA was extracted from frontal cortex (FC) and hippocampus (HP) using TRLzol® reagent (Thermo Fisher Scientific Inc., San Jose, CA, USA), with purity and quantity assessed via UV spectrophotometry. […] Double-stranded DNA was quantified using SYBR Green master mix (Thermo Fisher Scientific Inc., San Jose, CA, USA) in a 20 µL reaction containing 2X SYBR Green PCR Master Mix, 10 nM of each primer, and 5 µL cDNA. […] Glyceraldehyde 3-phosphate dehydrogenase (GAPDH) mRNA served as the housekeeping gene, and fold differences were calculated using the 2^−∆∆CT method, incorporating standard deviation into the fold-difference calculation.

[1] = tested on: depressive-like behaviors; assay: Chronic mild stress (CMS) mouse model of depression, behaviours overall; type: in vivo, male ICR mice; settings: CMS mice, oral GNR-E 50, 150, 450 mg/kg/day, imipramine 20 mg/kg/day
Procedure: as §1, with “conditions. Mice were randomly divided into six groups […]. The non-stress group received 0.5% sodium carboxymethylcellulose (SCMC; 1 mL/kg, p.o.), while the CMS group received 0.5% SCMC (1 mL/kg, p.o.). […] All treatments were given daily for 3 weeks, starting on day 21, at 8:00 a.m., one hour before behavioral testing.” for “conditions.”

[2] = tested on: SERT, 5-HT1A, 5-HT1B, 5-HT2A, 5-HT2C, and 5-HT7; assay: qPCR of serotonergic biomarker genes in frontal cortex and hippocampus of CMS mice; type: in vivo, male ICR mice
Text: The CMS procedure, adapted from Willner [4], was applied to experimental mice over 48 days. Seventy-two mice were randomly assigned to six groups: a non-stress control group and four CMS-exposed groups for 6 weeks.
The frontal cortex (FC) and hippocampus (HP) were dissected from the brain for serotonin (5-HT), norepinephrine (NE) level assessments, and RT-qPCR analyses.
Total RNA was extracted from frontal cortex (FC) and hippocampus (HP) using TRLzol® reagent (Thermo Fisher Scientific Inc., San Jose, CA, USA), with purity and quantity assessed via UV spectrophotometry. Complementary DNA (cDNA) was synthesized using 10 mM dNTP, 50 µM oligo (dT)12-13 primer, and SuperScript® III reverse transcriptase (200 U/µL) in a FlexCycler2 PCR Thermal Cycler (Analytik Jena, Thuringia, Germany). Single-stranded DNA was annealed to gene-specific primers (Pacific Science, Bangkok, Thailand) at optimized temperatures, followed by extension. Double-stranded DNA was quantified using SYBR Green master mix (Thermo Fisher Scientific Inc., San Jose, CA, USA) in a 20 µL reaction containing 2X SYBR Green PCR Master Mix, 10 nM of each primer, and 5 µL cDNA. […] Melting curve analysis was conducted post-amplification. Glyceraldehyde 3-phosphate dehydrogenase (GAPDH) mRNA served as the housekeeping gene, and fold differences were calculated using the 2^−∆∆CT method, incorporating standard deviation into the fold-difference calculation [30].

[3] = tested on: glucocorticoid receptor (GR) and serum/glucocorticoid-regulated kinase-1 (SGK-1); assay: qPCR of HPA-axis genes in frontal cortex and hippocampus of CMS mice; type: in vivo, male ICR mice; settings: FC and HP, daily imipramine or GNR-E 50, 150, 450 mg/kg, vs vehicle-treated CMS group
Procedure: as §1
Mice were randomly divided into six groups (n = 15). […]
as §3

[4] = tested on: serum corticosterone (CORT); assay: Serum corticosterone (CORT) ELISA in CMS mice; type: in vivo, male ICR mice; settings: daily imipramine 20 mg/kg or GNR-E 50, 150 and 450 mg/kg, p < 0.001 vs vehicle-treated CMS group
Procedure: as §1
Mice were randomly divided into six groups […]. The non-stress group received 0.5% sodium carboxymethylcellulose (SCMC; 1 mL/kg, p.o.), while the CMS group received 0.5% SCMC (1 mL/kg, p.o.). The CMS + imipramine (IMP) group was administered imipramine hydrochloride (20 mg/kg, p.o.), and the CMS + GNR-E groups received GNR-E at 50, 150, and 450 mg/kg (p.o.), respectively. All treatments were given daily for 3 weeks, starting on day 21, at 8:00 a.m., one hour before behavioral testing. […]
Corticosterone levels were measured using an enzyme-linked immunosorbent assay (ELISA) kit (ab108821, Abcam Ltd., Cambridge, Cambridgeshire, UK) following the manufacturer’s instructions. […]

[5] = tested on: CMS-induced anhedonia behavior; assay: Sucrose preference (consumption) test in CMS mice; type: in vivo, male ICR mice; settings: imipramine 20 mg/kg p.o. daily, by week 4
Procedure: Five-week-old male ICR mice (15–20 g) were obtained from Nomura Siam International (Bangkok, Thailand) and acclimatized for seven days prior to experimentation. The study protocol adhered to the Guiding Principle for the Care and Use of Animals (NIH Publications #8-23, revised 2011) and was approved by the Animal Ethics Committee of Khon Kaen University (approval No. IACUC-KKU-121/64), complying with ARRIVE guideline 2.0. […] Behavioral experiments were conducted between 07:00 and 17:00 h. The CMS procedure, adapted from Willner, was applied to experimental mice over 48 days. Seventy-two mice were randomly assigned to six groups: a non-stress control group and four CMS-exposed groups for 6 weeks. […] The amount consumed each day was recorded and used to group the mice and establish the baseline sucrose consumption before initiating the chronic stress procedure. During the subsequent experimental period (week 1–6), sucrose consumption was measured weekly using the same deprivation and testing conditions under chronic stress. The weight of each mouse and the amount of sucrose solution consumed were recorded and calculated as the amount of sucrose intake g/kg body weight).

serotonin (5-HT) = assay: Serotonin (5-HT) levels in frontal cortex and hippocampus of CMS mice; type: in vivo, male ICR mice; settings: daily imipramine 20 mg/kg or GNR-E 450 mg/kg, vs vehicle-treated CMS group
Procedure: as §1, §2
Serotonin levels in mouse brain extracts were quantified using a modified fluorometric method.A 0.2 mL brain extract sample was mixed with 0.25 mL O-phthaldialdehyde (Sigma-Aldrich, St. Louis, MO, USA) and heated to 100 °C for 10 min to form a fluorophore. Levels were measured spectrofluorometrically at 340 nm (excitation) and 470 nm (emission) after cooling to room temperature. Concentrations were determined against a calibration curve (0, 25, 50, 100, 200, 300, 400 µg/mL) using the equation Y = AX + B, expressed as µg/mL.

MAO-A = settings: cited from earlier work; for selective MAO-A inhibition: GNR-E constituents, ref Previous studies
immobility = tested on: immobility; parameters: method as in Sahu et al.; settings: α-mangostin from G. mangostana, by elevating 5-HT; ref Sahu et al.; cited from earlier work
MAO-B = settings: cited from earlier work; for MAO-B inhibition (targeting): GNR-E constituents, ref Previous studies
[6] = tested on: antidepressant-like properties; settings: through monoaminergic modulation; cited from earlier work
[7] = FC and HP, imipramine, GNR-E 150–450 mg/kg
[8] = imipramine, GNR-E 150–450 mg/kg

CN(C)CCCN1c2ccccc2CCc2ccccc21 [imipramine, imipramine hydrochloride]
NE levels in frontal cortex and hippocampus (norepinephrine (NE)): significantly restored 5-HT and NE levels | CMS-increased expression of noradrenergic genes (NET, α2A, α2C) (NET, α2A, and α2C; FC and HP, daily imipramine or GNR-E, highest dose greatest effect): significantly attenuated | CMS-upregulated NET mRNA expression (NET, α2A, and α2C; [7]): reversed | CMS-upregulated α2A and α2C receptor expression (NET, α2A, and α2C; [8]): reversed | depressive-like behaviors [1]: significantly improved depressive-like behaviors | CMS-induced upregulation of serotonergic biomarker genes (SERT, 5-HT1A, 5-HT1B, 5-HT2A, 5-HT2C, 5-HT7) ([2]; FC and HP, daily imipramine 20 mg/kg or GNR-E 50, 150, 450 mg/kg, vs vehicle-treated CMS group): significantly reduced these elevations | CMS-increased 5-HT1A and 5-HT1B mRNA expression ([2]; FC and HP, imipramine, GNR-E 450 mg/kg): reversed | CMS-upregulated SERT mRNA expression [2, 7]: reversed | CMS-elevated 5-HT2A, 5-HT2C, and 5-HT7 receptor expression [2, 8]: mitigated | CMS-induced changes in SGK-1 (increased) and GR (decreased) mRNA levels [3]: significantly reversed these changes | serum CORT levels [4]: significantly reduced these elevated CORT levels | sucrose intake (2% sucrose solution) [5]: significant increase in sucrose intake | 5-HT levels in frontal cortex and hippocampus (serotonin (5-HT)): significantly restored 5-HT and NE levels

cowaxanthone
selective MAO-A inhibition (MAO-A): selectively inhibiting MAO-A

COc1c(O)cc2oc3cc(O)c(CC=C(C)C)c(O)c3c(=O)c2c1C/C=C(\C)CCC=C(C)C [cowanin]
selective MAO-A inhibition (MAO-A): selectively inhibiting MAO-A | MAO-A inhibition, rank among constituents (MAO-A; ref Our previous study): most potent toward MAO-A

cowagarcinone A
selective MAO-A inhibition (MAO-A): selectively inhibiting MAO-A

COc1c(O)cc2oc3cc(O)c(CC=C(C)C)c(O)c3c(=O)c2c1CC=C(C)C [α-mangostin]
immobility (immobility): reducing immobility | MAO-B inhibition (targeting) (MAO-B): targeting MAO-B | MAO-B inhibition, relative strength (MAO-B; ref Our previous study): stronger MAO-B inhibition | antidepressant-like properties [6]: antidepressant-like properties

COc1cc2oc3cc(O)c(CC=C(C)C)c(O)c3c(=O)c2c(CC=C(C)C)c1OC [cowaxanthone B]
MAO-B inhibition (targeting) (MAO-B): targeting MAO-B

xanthochymusxanthone A
selective MAO-A inhibition (MAO-A): selectively inhibiting MAO-A
